Reference: ChEMBL document CHEMBL3045467, “Major alkaloidal constituent from Impatiens niamniamensis seeds as antihyperglycemic agent” (2011)

Legend:
Assay type in all cases: functional
Parameters in all cases: scale not given: the % may be the effect or the level left
[1] = system: Rattus norvegicus; experiment: Antihyperglycemic activity in albino Rattus norvegicus Sprague-Dawley (rat) streptozotocin-induced diabetic model assessed as reduction of AUC of blood glucose level at 50 mg/kg, po after 24 hr
[2] = system: Rattus norvegicus; experiment: Antihyperglycemic activity in albino Rattus norvegicus Sprague-Dawley (rat) streptozotocin-induced diabetic model assessed as reduction of AUC of blood glucose level at 50 mg/kg, po after 5 hr
[3] = system: Rattus norvegicus; experiment: Antihyperglycemic activity in albino Rattus norvegicus Sprague-Dawley (rat) streptozotocin-induced diabetic model assessed as reduction of AUC of blood glucose level at 100 mg/kg, po after 5 hr
[4] = system: Rattus norvegicus; experiment: Antihyperglycemic activity in albino Rattus norvegicus Sprague-Dawley (rat) streptozotocin-induced diabetic model assessed as reduction of AUC of blood glucose level at 100 mg/kg, po after 24 hr

SMILES | Activity [1] [%] | Activity [2] [%] | Activity [3] [%] | Activity [4] [%]
C[N+](C)(C)[C@@H](Cc1c[nH]c2ccccc12)C(=O)[O-] [Hypaphorine] | 20.4 | 27.8 | – | –
CN(C)C(=N)NC(=N)N [METFORMIN] | – | – | 26 | 24.9
